Data taken from publication PMC12772033, “A drought stress-responsive metabolite malate modulates stomatal responses through G-protein-dependent pathway in grapevine and Arabidopsis” (Molecular Horticulture, 2026).
Where a name gives a salt, the structure may show the parent alone.

How the values were obtained:
VvSLAC1 [1] = biological target: T1, VvSLAC1 (Vitis vinifera, UniProt A0ABY9BHH9, F440A); assay: two-electrode voltage clamp, Xenopus oocytes; format: cell-based; conditions: activator of open-gate mutant
T1 construct: gene VitviT2T_002114; cDNA in pNB1u, cRNA expressed in Xenopus laevis oocytes; no tag mentioned; model trimmed 1-141 and 507-553

VvSLAC1 [2] = biological target: T1, VvSLAC1; assay: two-electrode voltage clamp, ramp mode, Xenopus oocytes; format: cell-based; conditions: activator of open-gate mutant, pH 5.6, 1 mM LaCl3, ramp +60 to -120 mV
[3] = pH 5.6, 1 mM LaCl3, -120 mV gap-free and I-V steps

T1 sequence (A0ABY9BHH9 entry or part of it F440A): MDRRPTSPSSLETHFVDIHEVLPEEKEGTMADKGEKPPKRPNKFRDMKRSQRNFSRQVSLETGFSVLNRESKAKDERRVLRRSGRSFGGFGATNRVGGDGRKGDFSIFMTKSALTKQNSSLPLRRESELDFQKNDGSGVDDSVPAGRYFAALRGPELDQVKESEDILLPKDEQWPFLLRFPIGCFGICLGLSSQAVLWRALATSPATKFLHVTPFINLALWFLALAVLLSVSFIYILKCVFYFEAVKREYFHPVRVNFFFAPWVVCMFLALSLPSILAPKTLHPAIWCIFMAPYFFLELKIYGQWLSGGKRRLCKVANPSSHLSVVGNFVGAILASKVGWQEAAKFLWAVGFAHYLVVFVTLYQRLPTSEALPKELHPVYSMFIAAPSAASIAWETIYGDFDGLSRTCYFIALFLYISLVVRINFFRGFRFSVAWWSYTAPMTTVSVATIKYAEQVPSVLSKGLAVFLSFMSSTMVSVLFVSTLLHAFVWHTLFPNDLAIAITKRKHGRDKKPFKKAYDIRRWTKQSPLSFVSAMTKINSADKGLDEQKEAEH

Row | SMILES | relative current at 10 mM (VvSLAC1 [1]; [3]) | other results
1 | O=C(O)C[C@H](O)C(=O)O [Mal, malate] | Dicarboxylates, however, promoted the activity of VvSLAC1F440A. | 
2 | O=C(O)CC(=O)C(=O)O [Oxal, oxalacetate] |  | relative current at 10 mM (VvSLAC1 [1]; pH 5.6, 1 mM LaCl3, -120 mV gap-free): Dicarboxylates, however, promoted the activity of VvSLAC1F440A.
3 | O=C(O)CC(O)(CC(=O)O)C(=O)O [Cit, citrate] |  | current at 10 mM (VvSLAC1 [2]): The metabolites other than monocarboxylates activated VvSLAC1F440A.
4 | O=C(O)/C=C/C(=O)O [Fum, fumarate] | Dicarboxylates, however, promoted the activity of VvSLAC1F440A. | 
